A short description of one series: Half-life in plasma. In kind it is in vitro ADME. As to conditions: unit inferred, unit assumed.
Another series is described as follows: Half-life in liver. The series is classed as in vitro ADME. The conditions noted are these: unit inferred, unit assumed.
Series [1] deals with porcine pancreatic elastase (PPE) (Sus scrofa, UniProt P00772). Briefly: Inhibition of PP elastase (Suc-Ala-Ala-Ala-NA hydrolysis). In kind it is biochemical. The method, then:
(§1) Assay of Inhibitory Potency. Peptide α-ketoamides were assayed as reversible enzyme inhibitors. Various concentrations of inhibitors in Me2 SO were added to the assay mixture which contained buffer and substrate. The reaction was started by the addition of the enzyme and the hydrolysis rates were followed spectrophotometrically or fluorimetrically.
(§2) A 0.1M Hepes, 0.5M NaCl, pH 7.5 buffer was utilized for human leukocyte elastase (HLE), porcine pancreatic elastase (PPE), chymotrypsin and cathepsin G. A 0.1 Hepes, 0.01M CaCl2, pH 7.5 buffer was utilized for trypsin, plasmin, and coagulation enzymes. A 50 mM Tris-HCl, 2 mM EDTA, 5 mM cysteine, pH 7.5 was used as a buffer for papain. A 88 mM KH2 PO4, 12 mM Na2 HPO4, 1.33 mM EDTA, 2.7 mM cysteine, pH 6.0 solution was used as a buffer for cathepsin B. A 20 mM Hepes, 10 mM CaCl2, 10 mM mercatoethanol, pH 7.2 buffer was utilized for calpain I and calpain II.
(§3) HLE and PPE were assayed with MeO-Suc-Ala-Ala-Pro-Val-NA and Suc-Ala-Ala-Ala-NA, respectively [Nakajima et al., J. Biol. Chem. 254, 4027-4032 (1979); incorporated herein by reference]. Human leukocyte cathepsin G and chymotrypsin Aα were assayed with Suc-Val-Pro-Phe-NA [Tanaka et al., Biochemistry 24, 2040-2047 (1985); incorporated herein by reference]. The hydrolysis of peptide 4-nitroanilides was measured at 410 nm [ε410 =8800 M^-1 cm^-1; Erlanger et al., Arch. Biochem. Biophys. 95, pp 271-278 (1961); incorporated herein by reference]. Trypsin, thrombin, human plasma kallikrein, porcine pancreatic kallikrein, human factor XIa, and human plasmin were assayed with Z-Arg-SBzl or Z-Gly-Arg-SBu-i [McRae et al., Biochemistry 20, 7196-7206 (1981); incorporated herein by reference]. All peptide thioester hydrolysis rates were measured with assay mixtures containing 4,4'-dithiodipyridine [ε324 =19800 M^-1 cm^-1; Grasetti & Murray, Arch. Biochem. Biophys. 119, 41-49 (1967); incorporated herein by reference].

In another series the target is chymotrypsin (Bos taurus, UniProt P00766, DEL14-15/DEL147-148). Briefly: Inhibition of chymotrypsin (Suc-Val-Pro-Phe-NA hydrolysis). In kind it is biochemical, bovine. The method, then: as §1, §2, §3
Series [2] addresses T1, Calpain I from human erythrocytes (Homo sapiens, UniProt P07384).
T1 construct: Calpain I was purified from human erythrocytes; from tissue; host or cells: human erythrocytes
T1 sequence (P07384 1-714): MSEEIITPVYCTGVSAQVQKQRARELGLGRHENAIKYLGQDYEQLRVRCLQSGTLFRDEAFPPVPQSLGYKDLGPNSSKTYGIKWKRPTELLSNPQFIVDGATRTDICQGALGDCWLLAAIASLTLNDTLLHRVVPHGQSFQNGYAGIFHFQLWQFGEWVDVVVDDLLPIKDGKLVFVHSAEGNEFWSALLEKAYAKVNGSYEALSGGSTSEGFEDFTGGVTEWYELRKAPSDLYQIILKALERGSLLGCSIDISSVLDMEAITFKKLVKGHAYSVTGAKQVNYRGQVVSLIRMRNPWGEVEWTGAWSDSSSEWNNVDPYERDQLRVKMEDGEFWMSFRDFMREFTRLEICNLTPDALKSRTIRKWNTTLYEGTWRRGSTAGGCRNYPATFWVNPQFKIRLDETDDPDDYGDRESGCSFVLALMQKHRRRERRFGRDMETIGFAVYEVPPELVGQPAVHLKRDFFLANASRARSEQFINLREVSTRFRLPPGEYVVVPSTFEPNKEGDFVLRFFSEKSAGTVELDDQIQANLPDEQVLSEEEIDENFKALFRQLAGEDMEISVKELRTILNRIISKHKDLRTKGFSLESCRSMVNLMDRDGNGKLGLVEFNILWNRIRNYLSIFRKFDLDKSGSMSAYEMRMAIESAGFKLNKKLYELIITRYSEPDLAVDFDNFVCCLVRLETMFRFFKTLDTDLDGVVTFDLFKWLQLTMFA
T1 sequence (P04632 1-268 partner): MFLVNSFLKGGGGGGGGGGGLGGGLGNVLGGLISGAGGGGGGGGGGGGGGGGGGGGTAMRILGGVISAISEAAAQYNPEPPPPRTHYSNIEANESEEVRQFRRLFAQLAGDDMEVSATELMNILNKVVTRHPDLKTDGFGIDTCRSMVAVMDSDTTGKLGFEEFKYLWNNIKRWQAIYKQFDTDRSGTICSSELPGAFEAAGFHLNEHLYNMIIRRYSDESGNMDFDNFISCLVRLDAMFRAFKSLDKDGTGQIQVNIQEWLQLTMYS
Briefly: Inhibition of calpain I (Suc-Leu-Tyr-AMC hydrolysis). In kind it is biochemical. As to the method:
(§4) Materials and Methods. HEPES, heparin, and A23187 were obtained from Calbiochem. Suc-Leu-Tyr-AMC and chromogenic substrates were obtained from Sigma. Calpain I was purified from human erythrocytes according to the method of Kitahara (Kitahara et al., J. Biochem. 95, 1759-1766) omitting the Blue-Sepharose step. Calpain II from rabbit muscle and cathepsin B were purchased from Sigma. Papain was purchased from Calbiochem.
as §1
(§5) Calpain I from human erythrocytes and calpain II from rabbit were assayed using Suc-Leu-Tyr-AMC [Sasaki et al., J. Biol. Chem. 259, 12489-12494 (1984); incorporated herein by reference], and the AMC (7-amino-4-methylcoumarin) release was followed fluorimetrically (excitation at 380 nm, and emmision at 460 nm). Calpains were assayed in 25 mM Tris pH=8.0, 10 mM CaCl2. Fluorescence was followed using a Gilson FL-1A fluorometer or a Perkin-Elmer 203 Fluorescence spectrometer. Cathepsin B was assayed in 20 mM sodium acetate pH=5.2, 0.5 mM dithiothreitol using Bz-Phe-Val-Arg-p-nitroanilide as substrate. Alternately, cathepsin B was assayed with Z-Arg-Arg-AFC [Barrett and Kirschke, Methods Enzymol. 80, 535-561 (1981); incorporated herein by reference], and the AFC (7-amino-4-trifluoromethylcoumarin) release was followed fluorimetrically (excitation at 400 nm and emmision at 505 nm). Papain was assayed in 100 mM KPO4, 1 mM EDTA, 2.5 mM cysteine pH=6.0 using Bz-Arg-AMC or Bz-Arg-NA [Kanaoka et al., Chem. Plmrm. Bull. 25, 3126-3128 (1977); incorporated herein by reference] as a substrate. The AMC (7-amino-4-methylcoumarin) release was followed fluorimetrically (excitation at 380 nm, and emmision at 460 nm). Enzymatic hydrolysis rates were measured at various substrate and inhibitor concentrations, and KI values were determined by either Lineweaver-Burk plots or Dixon plots.
as §2

Series [3] concerns the target Calpain II from rabbit muscle. Briefly: Inhibition of calpain II (Suc-Leu-Tyr-AMC hydrolysis). The series is classed as biochemical. The method, then:
as §4, §1, §5, §2

This is an account of results in patent publication US5610297A, “Peptides ketoamides” (Georgia Tech Research Corp., priority 1995, dated 1997).

The structures appear in SMILES notation.

porcine pancreatic elastase (PPE), sequence (P00772 27-266): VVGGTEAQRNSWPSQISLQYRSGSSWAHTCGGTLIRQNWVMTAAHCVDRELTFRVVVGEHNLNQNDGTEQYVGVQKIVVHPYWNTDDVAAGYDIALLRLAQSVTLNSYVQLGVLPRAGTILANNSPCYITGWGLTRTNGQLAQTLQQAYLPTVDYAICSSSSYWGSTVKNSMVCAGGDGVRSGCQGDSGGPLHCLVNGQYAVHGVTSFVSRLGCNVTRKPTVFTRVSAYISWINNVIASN

`CCCCNC(=O)C(=O)C(CC)NC(=O)C(CC(C)C)NC(=O)OCc1ccccc1` (stereo not drawn) [Z--Leu--Abu--CONH--nBu, Z-Leu-Abu-CONH-nBu]: the t 1/2 plasma in “Half-life in plasma” was > 1 h. The t 1/2 liver in the series “Half-life in liver” is > 1 h. In addition, the Ki was 5 µM in series [1], > 300 µM on chymotrypsin and 0.2 µM in series [2].
For the compound `CCNC(=O)C(=O)[C@H](CC)NC(=O)[C@H](CC(C)C)NC(=O)OCc1ccccc1` [Z--Leu--Abu--CONH--Et, Z-Leu-Abu-CONH-Et], the t 1/2 plasma in the series “Half-life in plasma” is > 1 h. Moreover, in “Half-life in liver”, the t 1/2 liver was > 1 h. For the same compound, the Ki in series [1] is 65 µM; at chymotrypsin, > 150 µM; in series [2] it was 0.5 µM; in series [3], 0.23 µM. In addition, the “better inhibitor of calpain I than Z-Leu-Phe-CONH-Et” value in series [2] (relative to Z-Leu-Phe-CONH-Et) is recorded as 14 fold.
For the compound `CCNC(=O)C(=O)[C@H](Cc1ccccc1)NC(=O)[C@H](CC(C)C)NC(=O)OCc1ccccc1` [Z--Leu--Phe--CONH--Et, Z-Leu-Phe-CONH-Et], the t 1/2 plasma in the series “Half-life in plasma” was > 1 h. In addition, the t 1/2 liver in “Half-life in liver” was > 1 h. The Ki in series [1] is > 150 µM; at chymotrypsin, 73 µM; in series [2] it was 7 µM; in series [3], 0.32 µM.
Take `CCCNC(=O)C(=O)C(Cc1ccccc1)NC(=O)C(CC(C)C)NC(=O)OCc1ccccc1` (stereo not drawn) [Z--Leu--Phe--CONH--nPr, Z-Leu-Phe-CONH-nPr]: the t 1/2 plasma in the series “Half-life in plasma” is > 1 h. The t 1/2 liver in the series “Half-life in liver” was > 1 h. In addition, the Ki in series [1] was > 300 µM; at chymotrypsin, 18 µM; in series [2], 15 µM; in series [3], 0.05 µM.

In general, Ki refers to the dissociation constant of the complex between target and ligand, obtained from inhibition or displacement.
